“Also recorded” adds a separate entry of the source.
Tests used:
[1] = system: Tra-1-81 antibody; experiment: Glycan microarray analysis (Consortium for Functional Glycomics printed array v3.2), binding of Tra-1-81; parameters: RFU (glycan binding signal of Tra-1-81): dose or concentration left out as unconfirmed; conditions: for binding of Tra-1-81 to the glycan, in words: glycan microarray; for RFU (glycan binding signal of Tra-1-81): Tra-1-81 (Chemicon MAB4381), average RFU of 6 replicates after removal of highest and lowest values
Description: (§1) Tra-1-81 and Tra-1-60 antibodies were from Chemicon (MAB4381 and MAB4361, respectively).
(§2) Glycan microarray analysis was carried out by the Consortium for Functional Glycomics. Glycan microarrays were printed as described (Blixt 2004). Version 3.2 of the human printed glycan array was used for analysis. Binding analysis was performed at […] of antibody. Data are reported as average RFU of 6 replicates after removal of highest and lowest values.

[2] = system: Tra-1-60 antibody; experiment: Glycan microarray analysis (Consortium for Functional Glycomics printed array v3.2), binding of Tra-1-60
Description: as §1, §2

Row | binding of Tra-1-81 to the glycan, in words [1] | RFU (glycan binding signal of Tra-1-81) [1] [RFU] | binding of Tra-1-60 to the glycan, in words [2] | Substance | binding of Tra-1-81 to the glycan, in words ([1]; listed as Galβ1-3GlcNAcβ1-3Galβ1-4GlcNAc)
1 | weakly bound |  |  | Lewis a | 
2 | specifically bound | 147 |  | Galb1-3GlcNacb1-3(Galb1-3GlcNacb1-3Galb1-4GlcNacb1-6)Galb1-4Glcb-Sp0 [Chart # 379] | 
3 | weakly bound |  | very weak or non-essential binding | Galb1-3GlcNAcb1-3Galb1-4Glcb-Sp10 [Chart # 131] | 
4 |  | 721 | exclusively bound | Galb1-3GlcNAcb1-3Galb1-4GlcNAcb-Sp0 [Chart # 130] | binding; also recorded: specifically bound
